We go through 3 molecules from patent US7122520B2, “Methods of modulating appetite using agouti-related transcript polypeptides” (Amgen Inc., priority 1996, dated 2006).

For one assay, the system named is feeding response of rats. The note with it: injection into the brain of rats; cited from earlier work.
A further assay relates to food intake of rats. The assay can be described thus: Feeding behavior of rats treated with ART (intracerebroventricular injection). In kind it is in vivo, Long-Evans male rats. On the procedure: Long-Evans male rats weighing 300–500 grams were chronically implanted in the brain with a 22 gauge cannula aimed at the lateral ventricle. The steriotaxic coordinates for the canulas were approximately: 0.8 mm anterior/posterior; 1.4 mm medial/lateral; and 3.5 mm dorsal/ventral. A 3.5 mm, 28 gauge stylet remained inside the implanted cannula until the animal was ready for an injection. ART peptide or control solutions were administered with a 28 gauge injector that extended about 1 mm beyond the tip of the cannula.
ART peptide was dissolved in PBS (pH about 7.0) and injected into the lateral ventricle at doses ranging from about 0.075 nmol to about 7.5 nmol in a volume of about 2 μl. Controls were PBS and an unfolded version of ART at about 7.5 nmol. Feeding measurements were taken from pre-weighed dishes containing a mixture of ground rodent chow, sugar, and condensed milk. (45%:28%:27%). Rats were offered this mixture along with their regular chow about 24 hours prior to injection. About one and one half hours prior to infusion, the regular chow was removed, but the rats were allowed to continue feeding on the sweetened mixture. Injections were done at 8:30 am or at 8:30 pm. Food intake was assessed by weighing the dishes over time at 90 minutes, 4 hours, 8 hours, 12 hours, and 24 hours after injection. 10–12 rats were used per group.

The target of the next assay is T1, MC1 receptor (Mus musculus, UniProt Q01727).
T1 construct: at the MC1 receptor in B16F10 mouse melanoma cell cultures; endogenous in cells; host or cells: B16F10 mouse melanoma cells
The note with it: B16F10 mouse melanoma cell cultures; cited from earlier work.

Ends that are not written are not given here.

T1 sequence (Q01727 whole entry): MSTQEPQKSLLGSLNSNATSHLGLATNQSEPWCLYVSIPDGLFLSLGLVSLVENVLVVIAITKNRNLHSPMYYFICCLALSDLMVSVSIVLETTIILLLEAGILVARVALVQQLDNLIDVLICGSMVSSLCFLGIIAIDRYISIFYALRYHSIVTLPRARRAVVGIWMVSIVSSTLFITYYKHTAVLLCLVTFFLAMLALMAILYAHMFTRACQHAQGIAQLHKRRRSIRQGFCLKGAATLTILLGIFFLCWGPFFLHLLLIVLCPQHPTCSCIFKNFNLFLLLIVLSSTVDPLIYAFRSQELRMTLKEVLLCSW

Turning to “melanin concentrating hormone (DFDMLRCMLGRVYRPCWQV; ends and bridges not checked; cysteine pairing not given here; UniProt P20382 147-165, looked up) [MCH]”, the feeding response entry with feeding response of rats is recorded as “stimulates a feeding response”.
As for “folded ART: synthetic peptide containing amino acids 79–132 of ART (SEQ ID NO:8), refolded in Tris-HCl/urea (REPRSSRRCVRLHESCLGQQVPCCDPCATCYCRFFNAFCYCRKLGTAMNPCSRT; cysteine pairing not given here; also: refolded)”, the “food intake (cumulative amount of food consumed)” value in the assay on food intake of rats (injection into lateral ventricle, 0.075-7.5 nmol in about 2 μl, measured 90 minutes to 24 hours after injection, vs PBS and unfolded ART controls) is reported as “increased their food intake as compared to controls”. The “relation between amount of ART injected and amount of food eaten” value in the assay with food intake of rats (lateral ventricle, doses about 0.075 nmol to about 7.5 nmol) was “correlation between the amount of ART injected and the amount of food eaten”.

B1: mouse agouti protein: 131 amino acid secreted protein encoded by the mouse agouti gene (protein, UniProt Q03288 23-131, looked up)
Agouti-signaling protein: HLALEETLGDDRSLRSNSSMNSLDFSSVSIVALNKKSKKISRKEAEKRKRSSKKKASMKKVARPPPPSPCVATRDSCKPPAPACCDPCASCQCRFFGSACTCRVLNPNC
Regarding B1, the “antagonism of a-MSH at the MC1 receptor” value in the assay with MC1 receptor was “potent antagonist”.
